Test: Hematology assays in cynomolgus monkeys (Example 45)
Format: in vivo
Conditions: for MCH / MCHC / MCV / RBC count / WBC count / hematocrit / hemoglobin: escalating dose regimen
Protocol: Groups, each consisting of two male and three female monkeys, were injected subcutaneously with ISIS 416838, ISIS 416850, ISIS 416858, ISIS 416864, or ISIS 417002 in escalating doses. Antisense oligonucleotide was administered to the monkeys at 5 mg/kg three times per a week for week 1; 5 mg/kg twice per week for weeks 2 and 3; 10 mg/kg three times per week for week 4; 10 mg/kg twice per week for weeks 5 and 6; 25 mg/kg three times per week for week 7; and 25 mg/kg twice per week for weeks 8, 9, 10, 11, and 12. One control group, consisting of two male and three female monkeys, was injected subcutaneously with PBS according to the same dosing regimen. An additional experimental group, consisting of two male and three female monkeys, was injected subcutaneously with ISIS 416850 in a chronic, lower dose regimen. Antisense oligonucleotide was administered to the monkeys at 5 mg/kg three times per week for week 1; 5 mg/kg twice per week for week 2 and 3; 10 mg/kg three times per week for week 4; and 10 mg/kg twice per week for weeks 5 to 12. Body weights were measured weekly. Blood samples were collected 14 days and 5 days before the start of treatment and subsequently once per week for Factor 11 protein activity analysis in plasma, fibrinogen measurement, PT and aPTT measurements, bleeding times, and measurement of various hematologic factors. On day 85, the monkeys were euthanized by exsanguination while under deep anesthesia, and organs harvested for further analysis.
The ISIS oligonucleotide, ISIS 416850, given with the chronic dose regimen is distinguished from the other oligonucleotides with an asterisk (*).

ISIS 417002: MOE gapmer, nucleobases 1275 to 1318 of SEQ ID NO: 1 (Table 8) (antisense GGTGCACAGTTTCTGGCAGG; MOE gapmer, wing and gap sizes not given here)
MCH (Day 64): 22 pg
MCH (Day 71): 23 pg
MCH (Day 78): 23 pg
MCH (Day 85): 23 pg
basophils (day 8): 0.3%
eosinophils (day 8): 0.2%
lymphocytes (day 8): 50%
monocytes (day 8): 3.3%
neutrophils (day 8): 46%
platelet count (day 8): 435000 µL⁻¹
reticulocytes (day 8): 1.1%
MCH (day 8): 23 pg
MCHC (day 8): 29 g/dL
MCV (day 8): 79 fL
RBC count (day 8): 5.6e+06 µL⁻¹
WBC count (day 8): 10000 µL⁻¹
hematocrit (day 8): 44%
hemoglobin (day 8): 12.8 g/dL
basophils (day 15): 0.2%
eosinophils (day 15): 0.1%
lymphocytes (day 15): 40%
monocytes (day 15): 2.3%
neutrophils (day 15): 57%
platelet count (day 15): 410000 µL⁻¹
reticulocytes (day 15): 1.1%
MCH (day 15): 23 pg
MCHC (day 15): 31 g/dL
MCV (day 15): 76 fL
RBC count (day 15): 5.4e+06 µL⁻¹
WBC count (day 15): 10000 µL⁻¹
hematocrit (day 15): 40%
hemoglobin (day 15): 12.3 g/dL
basophils (day 22): 0.2%
eosinophils (day 22): 0.3%
lymphocytes (day 22): 41%
monocytes (day 22): 3.1%
neutrophils (day 22): 55%
platelet count (day 22): 377000 µL⁻¹
reticulocytes (day 22): 1.2%
MCH (day 22): 23 pg
MCHC (day 22): 29 g/dL
MCV (day 22): 79 fL
RBC count (day 22): 5.2e+06 µL⁻¹
WBC count (day 22): 10000 µL⁻¹
hematocrit (day 22): 41%
hemoglobin (day 22): 12.1 g/dL
basophils (day 29): 0.2%
eosinophils (day 29): 0.3%
lymphocytes (day 29): 50%
monocytes (day 29): 3.5%
neutrophils (day 29): 45%
platelet count (day 29): 410000 µL⁻¹
reticulocytes (day 29): 1.6%
MCH (day 29): 23 pg
MCHC (day 29): 29 g/dL
MCV (day 29): 81 fL
RBC count (day 29): 5.2e+06 µL⁻¹
WBC count (day 29): 10000 µL⁻¹
hematocrit (day 29): 42%
hemoglobin (day 29): 12.0 g/dL
basophils (day 36): 0.2%
eosinophils (day 36): 0.2%
lymphocytes (day 36): 35%
monocytes (day 36): 2.6%
neutrophils (day 36): 61%
platelet count (day 36): 415000 µL⁻¹
reticulocytes (day 36): 1.3%
MCH (day 36): 23 pg
MCHC (day 36): 30 g/dL
MCV (day 36): 78 fL
RBC count (day 36): 5.4e+06 µL⁻¹
WBC count (day 36): 11000 µL⁻¹
hematocrit (day 36): 42%
hemoglobin (day 36): 12.5 g/dL
basophils (day 43): 0.3%
eosinophils (day 43): 0.2%
lymphocytes (day 43): 39%
monocytes (day 43): 2.8%
neutrophils (day 43): 57%
platelet count (day 43): 393000 µL⁻¹
reticulocytes (day 43): 1.1%
MCH (day 43): 23 pg
MCHC (day 43): 30 g/dL
MCV (day 43): 77 fL
RBC count (day 43): 5.4e+06 µL⁻¹
WBC count (day 43): 10000 µL⁻¹
hematocrit (day 43): 41%
hemoglobin (day 43): 12.3 g/dL
basophils (day 50): 0.3%
eosinophils (day 50): 0.1%
lymphocytes (day 50): 34%
monocytes (day 50): 3.1%
neutrophils (day 50): 61%
platelet count (day 50): 389000 µL⁻¹
reticulocytes (day 50): 1.6%
MCH (day 50): 23 pg
MCHC (day 50): 29 g/dL
MCV (day 50): 80 fL
RBC count (day 50): 5.4e+06 µL⁻¹
WBC count (day 50): 13000 µL⁻¹
hematocrit (day 50): 43%
hemoglobin (day 50): 12.3 g/dL
basophils (day 57): 0.3%
eosinophils (day 57): 0.2%
lymphocytes (day 57): 40%
monocytes (day 57): 3.6%
neutrophils (day 57): 54%
platelet count (day 57): 403000 µL⁻¹
reticulocytes (day 57): 4.6%
MCH (day 57): 23 pg
MCHC (day 57): 29 g/dL
MCV (day 57): 80 fL
RBC count (day 57): 4.9e+06 µL⁻¹
WBC count (day 57): 12000 µL⁻¹
hematocrit (day 57): 38%
hemoglobin (day 57): 11.3 g/dL
basophils (day 64): 0.2%
eosinophils (day 64): 0.2%
lymphocytes (day 64): 39%
monocytes (day 64): 4.0%
neutrophils (day 64): 55%
platelet count (day 64): 436000 µL⁻¹
reticulocytes (day 64): 1.3%
MCHC (day 64): 30 g/dL
MCV (day 64): 76 fL
RBC count (day 64): 5.4e+06 µL⁻¹
WBC count (day 64): 11000 µL⁻¹
hematocrit (day 64): 41%
hemoglobin (day 64): 12.2 g/dL
basophils (day 71): 0.3%
eosinophils (day 71): 0.3%
lymphocytes (day 71): 59%
monocytes (day 71): 4.7%
neutrophils (day 71): 34%
platelet count (day 71): 490000 µL⁻¹
reticulocytes (day 71): 1.3%
MCHC (day 71): 29 g/dL
MCV (day 71): 78 fL
RBC count (day 71): 5.5e+06 µL⁻¹
WBC count (day 71): 12000 µL⁻¹
hematocrit (day 71): 43%
hemoglobin (day 71): 12.5 g/dL
basophils (day 78): 0.3%
eosinophils (day 78): 0.1%
lymphocytes (day 78): 41%
monocytes (day 78): 4.7%
neutrophils (day 78): 51%
platelet count (day 78): 432000 µL⁻¹
reticulocytes (day 78): 1.3%
MCHC (day 78): 31 g/dL
MCV (day 78): 75 fL
RBC count (day 78): 5.4e+06 µL⁻¹
WBC count (day 78): 9000 µL⁻¹
hematocrit (day 78): 40%
hemoglobin (day 78): 12.4 g/dL
basophils (day 85): 0.3%
eosinophils (day 85): 0.2%
lymphocytes (day 85): 56%
monocytes (day 85): 5.3%
neutrophils (day 85): 36%
platelet count (day 85): 418000 µL⁻¹
reticulocytes (day 85): 1.4%
MCHC (day 85): 30 g/dL
MCV (day 85): 76 fL
RBC count (day 85): 5.4e+06 µL⁻¹
WBC count (day 85): 10000 µL⁻¹
hematocrit (day 85): 41%
hemoglobin (day 85): 12.2 g/dL
basophils (day −5): 0.3%
eosinophils (day −5): 0.3%
lymphocytes (day −5): 53%
monocytes (day −5): 3.2%
neutrophils (day −5): 43%
platelet count (day −5): 466000 µL⁻¹
reticulocytes (day −5): 0.8%
MCH (day −5): 24 pg
MCHC (day −5): 30 g/dL
MCV (day −5): 80 fL
RBC count (day −5): 5.6e+06 µL⁻¹
WBC count (day −5): 14000 µL⁻¹
hematocrit (day −5): 45%
hemoglobin (day −5): 13.2 g/dL
basophils (day −14): 0.3%
eosinophils (day −14): 0.3%
lymphocytes (day −14): 53%
monocytes (day −14): 3.0%
neutrophils (day −14): 43%
platelet count (day −14): 442000 µL⁻¹
reticulocytes (day −14): 0.9%
MCH (day −14): 24 pg
MCHC (day −14): 30 g/dL
MCV (day −14): 79 fL
RBC count (day −14): 5.6e+06 µL⁻¹
WBC count (day −14): 13000 µL⁻¹
hematocrit (day −14): 44%
hemoglobin (day −14): 13.0 g/dL

— US20230263822A1, “MODULATION OF FACTOR 11 EXPRESSION” (Ionis Pharmaceuticals, Inc., priority 2008, published 2023)
